Tests used:
[1] = tested on: mouse model of generalised seizure; assay: mini-MEST (maximal electroshock seizure threshold test, minimal sample sizes) in the mouse; conditions: for change in vivo at 5 mg/kg / change in vivo at 50 mg/kg: Mus musculus, ip, change in CC50; for change in vivo at 5 mg/kg: 0.25 h, read-out: % change from vehicle, 5 mg/kg i.p., 15 min post dose; for change in vivo at 50 mg/kg: 0.5 h, read-out: % change from vehicle, 50 mg/kg i.p., 30 min post dose
Experimental: In the MEST test the ability of a drug to alter the seizure threshold current required to induce hind limb tonic extensor convulsions is measured according to an “up and down” method of shock titration (Kimball et al., 1957).
The ability of a test compound to alter the stimulus intensity, expressed as current (mA), required to induce the presence of tonic hind limb extensor convulsions, is assessed in the MEST.
Naïve mice were acclimatised to the procedure room in their home cages for up to 7 days, with food and water available ad libitum.
All animals were weighed at the beginning of the study and randomly assigned to treatment groups based on a mean distribution of body weight across groups.
The first animal within a treatment group was given a shock at the expected or estimated CC50 current. For subsequent animals, the current was lowered or raised depending on the convulsions outcome from the preceding animal in log scale intervals.
Data generated from each treatment group were used to calculate the CC50 ±SEM values for the treatment group.
The test compounds used were 1, 2, 3, 4 and 5. Test compounds were administered at 5-50 mg/kg (i.p.) in a 1:2:17 ethanol:solutol:saline formulation.
The data for each treatment group were recorded as the number of +'s and 0's at each current level employed and this information is then used to calculate the CC50 value (current required for 50% of the animals to show seizure behaviour) ±standard error.
Test compound effects were also calculated as percentage change in CC50 from the vehicle control group.
The test compounds used were 12, 42 and 43. Test compounds were administered at 5-50 mg/kg (i.p.) in a 1:2:17 ethanol:solutol:saline formulation.
The test compounds used were 6, 13, 22, 26, 28, 33, 38 and 46. Test compounds were administered at 5-50 mg/kg (i.p.) in a 1:2:17 ethanol:solutol:saline formulation.
The test compound used was 36. Test compound was administered at 5 and 50 mg/kg (i.p.) in a 1:2:17 ethanol:solutol:saline formulation.

[2] = tested on: mouse model of generalised seizure; assay: MEST (maximal electroshock seizure threshold) test in the mouse; conditions: for % change from vehicle: change in CC50
Experimental: The efficacy of the cannabinoid derivative of 1 was tested in a mouse model of generalised seizure, the maximal electroshock seizure threshold (MEST) test.
The protocol according to Example 2 was followed, with the current lowered or raised in intervals of 5 mA instead of log scale intervals.

[3] = 5 mg/kg i.p., test 15 min post dose
[4] = 50 mg/kg i.p., test 30 min post dose

Structure (SMILES) | CC50 +/− SEM [1, 3] [mA] | CC50 +/− SEM [1, 4] [mA] | change in vivo at 5 mg/kg [1] [%] | change in vivo at 50 mg/kg [1] [%] | further results
C=C(C)[C@@H]1CCC(C)=C[C@H]1c1c(O)cc(-c2cn(C)nn2)cc1O [Compound 4, (1′R,2′R)-5′-Methyl-4-(1-methyl-1H-1,2,3-triazol-4-yl)-2′-(prop-1-en-2-yl)-1′,2′,3′,4′-tetrahydro-[1, 1′-biphenyl]-2,6-diol] | 28.3 | 70.5 | 26 | 213 | –
C=C(C)[C@@H]1CCC(C)=C[C@H]1c1c(O)cc(-c2cnn(CCO)c2C)cc1O [Compound 5, (1′R,2′R)-4-(1-(2-Hydroxyethyl)-5-methyl-1H-pyrazol-4-yl)-5′-methyl-2′-(prop-1-en-2-yl)-1′,2′,3′,4′-tetrahydro-[1,1′-biphenyl]-2,6-diol] | – | 60.5 | – | 169 | –
CN1C(=O)CN=C(c2ccccc2)c2cc(Cl)ccc21 [Diazepam, diazepam, reference compound] | – | – | – | – | % change from vehicle ([2]; diazepam 2.5 mg/kg i.p., 30 min post dose): 224%
C=C(C)[C@@H]1CCC(C)=C[C@H]1c1c(O)cc(-c2cnn(CCN3CCOCC3)c2)cc1O [Compound 13, (1′R,2′R)-5′-Methyl-4-(1-(2-morpholinoethyl)-1H-pyrazol-4-yl)-2′-(prop-1-en-2-yl)-1′,2′,3′,4′-tetrahydro-[1,1′-biphenyl]-2,6-diol] | 25.0 | 37.2 | 6 | 58 | –
CC1=C[C@@H](c2c(O)cc(-c3cnn(C)c3)cc2O)[C@H](C(C)C)CC1 [Compound 36, (1′S,2′S)-2′-Isopropyl-5′-methyl-4-(1-methyl-1H-pyrazol-4-yl)-1′,2′,3′,4′-tetrahydro-[1,1′-biphenyl]-2,6-diol] | 29.0 | 70.5 | 14 | 176 | CC50 value compared to vehicle ([1]; 5 and 50 mg/kg i.p., between 15 and 30 minutes before the test): statistically significant
C=C(C)[C@@H]1CCC(C)=C[C@H]1c1c(O)cc(-n2cnc(C)n2)cc1O [Compound 26, (1′R,2′R)-5′-Methyl-4-(3-methyl-1H-1,2,4-triazol-1-yl)-2′-(prop-1-en-2-yl)-1′,2′,3′,4′-tetrahydro-[1,1′-biphenyl]-2,6-diol] | – | 75.0 | – | 233 | –
C=C(C)[C@@H]1CCC(C)=C[C@H]1c1c(O)cc(-c2cnn(C3COC3)c2)cc1O [Compound 38, (1′R,2′R)-5′-Methyl-4-(1-(oxetan-3-yl)-1H-pyrazol-4-yl)-2′-(prop-1-en-2-yl)-11,2′,3′,4′-tetrahydro-[1, 1′-biphenyl]-2,6-diol] | – | 79.5 | – | 200 | –
C=C(C)[C@@H]1CCC(C)=C[C@H]1c1c(O)cc(-c2cnn(CCO)c2)cc1O [Compound 2, (1′R,2′R)-4-(1-(2-Hydroxyethyl)-1H-pyrazol-4-yl)-5′-methyl-2′-(prop-1-en-2-yl)-1′,2′,3′,4′-tetrahydro-[1,1′-biphenyl]-2,6-diol] | 32.5 | <35.0 | 30 | < 40 | –
C=C(C)[C@@H]1CCC(C)=C[C@H]1c1c(O)cc(-c2cnn(CC(C)(C)O)c2)cc1O [Compound 1, (1′R,2′R)-4-(1-(2-Hydroxy-2-methylpropyl)-1H-pyrazol-4-yl)-5′-methyl-2′-(prop-1-en-2-yl)-1′,2′,3′,4′-tetrahydro-[1,1′-biphenyl]-2,6-diol] | – | 119.5 | – | 388 | % change from vehicle ([2]; 1 mg/kg i.p., 15 min post dose): 10%; CC50 +/− SEM ([2]; 1 mg/kg i.p., test 15 min post dose): 28.5 mA; % change from vehicle ([2]; 5 mg/kg i.p., 15 min post dose): 21%; CC50 +/− SEM [2, 3]: 31.5 mA; % change from vehicle ([2]; 50 mg/kg i.p., 30 min post dose): 213%; CC50 +/− SEM [2, 4]: 81.5 mA
C=C(C)[C@@H]1CCC(C)=C[C@H]1c1c(O)cc(-c2ccn(C)c(=O)c2)cc1O [Compound 42, 4-((1′R,2′R)-2,6-dihydroxy-5′-methyl-2′-(prop-1-en-2-yl)-1′,2′,3′,4′-tetrahydro-[1,1′-biphenyl]-4-yl)-1-methylpyridin-2(1H)-one] | – | 67.5 | – | 132 | –
C=C(C)[C@@H]1CCC(C)=C[C@H]1c1c(O)cc(-c2cccnc2OC)cc1O [Compound 43, (1′R,2′R)-4-(2-methoxypyridin-3-yl)-5′-methyl-2′-(prop-1-en-2-yl)-1′,2′,3′,4′-tetrahydro-[1,1′-biphenyl]-2,6-diol] | – | 58.2 | – | 96 | –
C=C(C)[C@@H]1CCC(C)=C[C@H]1c1c(O)cc(-c2cnn(CCN(C)C)c2)cc1O [Compound 6, (1′R,2′R)-4-(1-(2-(Dimethylamino)ethyl)-1H-pyrazol-4-yl)-5′-methyl-2′-(prop-1-en-2-yl)-1′,2′,3′,4′-tetrahydro-[1,1′-biphenyl]-2,6-diol] | – | <43 | – | < 76 | –
C=C(C)[C@@H]1CCC(C)=C[C@H]1c1c(O)cc(-c2cn(C)cn2)cc1O [Compound 28, (1′R,2′R)-5′-Methyl-4-(1-methyl-1H-imidazol-4-yl)-2′-(prop-1-en-2-yl)-1′,2′,3′,4′-tetrahydro-[1,1′-biphenyl]-2,6-diol] | 25.0 | 35.5 | 11 | 58 | –
C=C(C)[C@@H]1CCC(C)=C[C@H]1c1c(O)cc(-c2cnn(CC(C)O)c2)cc1O (stereo partly drawn) [Compound 22, (1′R,2′R)-4-(1-(2-Hydroxypropyl)-1H-pyrazol-4-yl)-5′-methyl-2′-(prop-1-en-2-yl)-1′,2′,3′,4′-tetrahydro-[1,1′-biphenyl]-2,6-diol] | 33.0 | 66.0 | 25 | 149 | –
C=C(C)[C@@H]1CCC(C)=C[C@H]1c1c(O)cc(-c2cn(C)nc2C)cc1O [Compound 3, (1′R,2′R)-4-(1,3-Dimethyl-1H-pyrazol-4-yl)-5′-methyl-2′-(prop-1-en-2-yl)-1′,2′,3′,4′-tetrahydro-[1,1′-biphenyl]-2,6-diol] | 27.5 | 62.5 | 10 | 150 | –
C=C(C)[C@@H]1CCC(C)=C[C@H]1c1c(O)cc(-c2ncn(C)n2)cc1O [Compound 33, (1′R,2′R)-5′-Methyl-4-(1-methyl-1H-1,2,4-triazol-3-yl)-2′-(prop-1-en-2-yl)-1′,2′,3′,4′-tetrahydro-[1, 1′-biphenyl]-2,6-diol] | – | 53.5 | – | 138 | –
C=C(C)[C@@H]1CCC(C)=C[C@H]1c1c(O)cc(N(C)c2cccnc2)cc1O [Compound 46, (1′R,2′R)-5′-Methyl-4-(methyl(pyridin-3-yl)amino)-2′-(prop-1-en-2-yl)-1′,2′,3′,4′-tetrahydro-[1, 1′-biphenyl]-2,6-diol] | – | 61.5 | – | 132 | –
C=C(C)[C@@H]1CCC(C)=C[C@H]1c1c(O)cc(-c2ccc(OC)nc2)cc1O [Compound 12, (1′R,2′R)-4-(6-Methoxypyridin-3-yl)-5′-methyl-2′-(prop-1-en-2-yl)-1′,2′,3′,4′-tetrahydro-[1,1′-biphenyl]-2,6-diol] | 25.0 | >131 | -6 | > 394 | convulsions observed ([1]; 50 mg/kg, CC50 not reached): no animals had any convulsions
